Reference: patent US4359458A, “O-β. -D (and O-α.. -D) Multigalactopyranosyl, xylopyranosyl and glucopyranosyl sulfate salts” (American Cyanamid Company, priority 1981, dated 1982)
Counter-ions that a name gives are not always drawn.

Key:
activated human C1 = activated human C1 (Homo sapiens, UniProt P09871); experiment: Test Code 026 (C1 inhibitor); type: biochemical; conditions: serial dilution assay, twofold dilutions; higher well number indicates higher activity
From the text: (§1) An active inhibitor protects C2 from C1 and C4; (ii) Test Code 035 (C3-C9 inhibitor)--This test determines the ability of the late components of human complement (C3-C9) to lyse EAC 142 in the presence of appropriate dilutions of the test compound. An active inhibitor protects EAC 142 from lysis by human C3-C9; (iii) Test Code 036 (C-Shunt inhibitor)--In this test human erythrocytes rendered fragile are lysed in autologous serum via the shunt pathway activated by cobra venom factor in the presence of appropriate dilutions of the test compound. Inhibition of the shunt pathway results in failure of lysis; (iv) Cap 50 Test--Here, appropriate amounts of the test compound are added to a pool of guinea pig serum in vitro, after which the undiluted serum capillary tube assay of U.S. Pat. No. 3,876,376 is run. The concentration of compound inhibiting 50% is reported; and (v) Guinea Pig Intraperitoneal Test (GPIP)--Guinea pigs weighing about 300 g are dosed intraperitoneally (i.p.) with 200 mg/kg of the test compound dissolved in saline and adjusted to pH 7-8. Approximately 0.4 ml blood samples, taken by orbital sinus puncture 30 minutes and one hour after injections, are collected directly into centrifuge tubes; 5 ml blood samples, taken by decapitation 2 hours after injection are collected directly into beakers. The samples are allowed to clot, centrifuged, and the resultant sera are assayed for complement activity using the capillary complement assay. Percent inhibition is calculated by comparison with simultaneous controls. The results of the GPIP appear in Table I together with results of test code 026, 035, 036 and Cap 50.

[1] = test system: shunt pathway activated by cobra venom factor; experiment: Test Code 036 (C-Shunt inhibitor); type: cell-based, human; conditions: serial dilution assay, twofold dilutions; higher well number indicates higher activity; N = Negative
From the text: as §1

[2] = test system: late components of human complement (C3-C9); experiment: Test Code 035 (C3-C9 inhibitor); type: biochemical; conditions: serial dilution assay, twofold dilutions; higher well number indicates higher activity; N = Negative
From the text: as §1

SMILES	Cl 026 Wells (activated human C1)	C-Shunt Inhibition 036 Wells [1]	C-Late 035 Wells [2]
O=S(=O)(O)OC[C@H]1O[C@@H](OC[C@H]2O[C@H](O[C@H]3O[C@H](CO[C@@H]4O[C@H](COS(=O)(=O)O)[C@H](OS(=O)(=O)O)[C@H](OS(=O)(=O)O)[C@H]4OS(=O)(=O)O)[C@@H](OS(=O)(=O)O)[C@H](OS(=O)(=O)O)[C@H]3OS(=O)(=O)O)[C@H](OS(=O)(=O)O)[C@@H](OS(=O)(=O)O)[C@@H]2OS(=O)(=O)O)[C@H](OS(=O)(=O)O)[C@@H](OS(=O)(=O)O)[C@H]1OS(=O)(=O)O [drawing 11, Gal 1β,6 glc 1α,1α' glc 1β,6 gal, tetradecakis (H-sulfate), tetradecasalt with trimethylamine]	9 Wells	5 Wells	
O=S(=O)(O)OC[C@H]1O[C@@H](OC[C@H]2O[C@H](O[C@H]3O[C@H](CO[C@@H]4O[C@H](COS(=O)(=O)O)[C@H](OS(=O)(=O)O)[C@H](OS(=O)(=O)O)[C@H]4OS(=O)(=O)O)[C@@H](OS(=O)(=O)O)[C@H](OS(=O)(=O)O)[C@H]3OS(=O)(=O)O)[C@H](OS(=O)(=O)O)[C@@H](OS(=O)(=O)O)[C@@H]2OS(=O)(=O)O)[C@H](OS(=O)(=O)O)[C@@H](OS(=O)(=O)O)[C@H]1OS(=O)(=O)O [drawing 12, Gal 1β,6 glc 1α,1α' glc 1β,6 gal, tetradecakis (H-sulfate), tetradecasodium salt]	9 Wells	6 Wells	
O=S(=O)(O)O[C@@H]1[C@@H](OS(=O)(=O)O)[C@@H](O[C@H]2O[C@H](CO[C@@H]3OC[C@@H](OS(=O)(=O)O)[C@H](OS(=O)(=O)O)[C@H]3OS(=O)(=O)O)[C@@H](OS(=O)(=O)O)[C@H](OS(=O)(=O)O)[C@H]2OS(=O)(=O)O)O[C@H](CO[C@@H]2OC[C@@H](OS(=O)(=O)O)[C@H](OS(=O)(=O)O)[C@H]2OS(=O)(=O)O)[C@H]1OS(=O)(=O)O [drawing 13, Xyl 1β,6 glc 1α,1α' glc 1β,6 xyl, dodecakis (H-sulfate), dodecasalt with trimethylamine]	10 Wells	3 Wells	
O=S(=O)(O)OC[C@H]1O[C@@H](OC[C@H]2O[C@H](O[C@H]3O[C@H](CO[C@@H]4O[C@H](COS(=O)(=O)O)[C@@H](O[C@H]5O[C@H](COS(=O)(=O)O)[C@@H](OS(=O)(=O)O)[C@H](OS(=O)(=O)O)[C@H]5OS(=O)(=O)O)[C@H](OS(=O)(=O)O)[C@H]4OS(=O)(=O)O)[C@@H](OS(=O)(=O)O)[C@H](OS(=O)(=O)O)[C@H]3OS(=O)(=O)O)[C@H](OS(=O)(=O)O)[C@@H](OS(=O)(=O)O)[C@@H]2OS(=O)(=O)O)[C@H](OS(=O)(=O)O)[C@@H](OS(=O)(=O)O)[C@@H]1O[C@H]1O[C@H](COS(=O)(=O)O)[C@@H](OS(=O)(=O)O)[C@H](OS(=O)(=O)O)[C@H]1OS(=O)(=O)O [drawing 15, Glc 1α,4 glc 1β,6 glc 1α,1α' glc 1β,6 glc 1α,4 glc, eicosakis (H-sulfate), eicosasalt with trimethylamine]	5 Wells	N	N
O=S(=O)(O)OC[C@H]1O[C@@H](OC[C@H]2O[C@H](O[C@H]3O[C@H](CO[C@@H]4O[C@H](COS(=O)(=O)O)[C@@H](O[C@H]5O[C@H](COS(=O)(=O)O)[C@@H](OS(=O)(=O)O)[C@H](OS(=O)(=O)O)[C@H]5OS(=O)(=O)O)[C@H](OS(=O)(=O)O)[C@H]4OS(=O)(=O)O)[C@@H](OS(=O)(=O)O)[C@H](OS(=O)(=O)O)[C@H]3OS(=O)(=O)O)[C@H](OS(=O)(=O)O)[C@@H](OS(=O)(=O)O)[C@@H]2OS(=O)(=O)O)[C@H](OS(=O)(=O)O)[C@@H](OS(=O)(=O)O)[C@@H]1O[C@H]1O[C@H](COS(=O)(=O)O)[C@@H](OS(=O)(=O)O)[C@H](OS(=O)(=O)O)[C@H]1OS(=O)(=O)O [drawing 16, Glc 1α,4 glc 1β,6 glc 1α,1α' glc 1β,6 glc 1α,4 glc, eicosakis (H-sulfate), eicosasodium salt]	10 Wells	6 Wells	N
